Assay results: ChEMBL document CHEMBL1687763 (2010)
Values after ≈ are worked out from the molar mass of the structure shown.

Key:
Staphylococcus aureus [1] = test: Antimicrobial activity against methicillin-resistant Staphylococcus aureus isolate 55 after 48 hrs by macrodilution method; details: isolate 55, 48 h
Staphylococcus aureus [2] = test: Antimicrobial activity against methicillin-resistant Staphylococcus aureus isolate 56 after 24 hrs by macrodilution method; details: isolate 56, 24 h
Staphylococcus aureus [3] = test: Antimicrobial activity against methicillin-resistant Staphylococcus aureus isolate 8 by broth microdilution method
Staphylococcus aureus [4] = test: Antimicrobial activity against methicillin-resistant Staphylococcus aureus isolate 12 by broth microdilution method
Staphylococcus aureus [5] = test: Antimicrobial activity against methicillin-resistant Staphylococcus aureus isolate 56 after 48 hrs by agar dilution method; details: isolate 56, 48 h
Staphylococcus aureus [6] = test: Antimicrobial activity against methicillin-resistant Staphylococcus aureus isolate 56 after 48 hrs by macrodilution method; details: isolate 56, 48 h
Staphylococcus aureus [7] = test: Antimicrobial activity against methicillin-resistant Staphylococcus aureus isolate 56 after 24 hrs by agar dilution method; details: isolate 56, 24 h
Staphylococcus aureus [8] = test: Antimicrobial activity against methicillin-resistant Staphylococcus aureus isolate 56 grown on brain heart infusion media after 48 hrs by macrodilution method; details: isolate 56, 48 h
Staphylococcus aureus [9] = test: Antimicrobial activity against methicillin-resistant Staphylococcus aureus isolate 55 grown on brain heart infusion media after 48 hrs by macrodilution method; details: isolate 55, 48 h
Staphylococcus aureus [10] = test: Antimicrobial activity against methicillin-resistant Staphylococcus aureus isolate 55 after 24 hrs by agar dilution method; details: isolate 55, 24 h
Staphylococcus aureus [11] = test: Antimicrobial activity against methicillin-resistant Staphylococcus aureus isolate 55 grown on CAMHB media after 48 hrs by tube macrodilution method; details: isolate 55, 48 h
Staphylococcus aureus [12] = test: Antimicrobial activity against heterogenous glycopeptide-intermediate resistant Staphylococcus aureus Mu3-D grown on brain heart infusion media after 48 hrs by tube macrodilution method
Staphylococcus aureus [13] = test: Antimicrobial activity against methicillin-resistant Staphylococcus aureus isolate 55 after 48 hrs by agar dilution method; details: isolate 55, 48 h
Staphylococcus aureus [14] = test: Antimicrobial activity against methicillin-resistant Staphylococcus aureus isolate 6 by broth microdilution method
Staphylococcus aureus [15] = test: Antimicrobial activity against methicillin-resistant Staphylococcus aureus isolate 56 grown on CAMHB media after 48 hrs by tube macrodilution method; details: isolate 56, 48 h
Staphylococcus aureus [16] = test: Antimicrobial activity against methicillin-resistant Staphylococcus aureus isolate 1 by broth microdilution method
Staphylococcus aureus [17] = test: Antimicrobial activity against glycopeptide-susceptible Staphylococcus aureus NRS3 by tube macrodilution method
Staphylococcus aureus [18] = test: Antimicrobial activity against methicillin-resistant Staphylococcus aureus isolate 55 after 24 hrs by macrodilution method; details: isolate 55, 24 h

Molecule CN[C@H](CC(C)C)C(=O)N[C@H]1C(=O)N[C@@H](CC(N)=O)C(=O)N[C@H]2C(=O)N[C@H]3C(=O)N[C@H](C(=O)N[C@H](C(=O)O)c4cc(O)cc(O)c4-c4cc3ccc4O)[C@H](O)c3ccc(c(Cl)c3)Oc3cc2cc(c3O[C@@H]2O[C@H](CO)[C@@H](O)[C@H](O)[C@H]2O[C@H]2C[C@](C)(N)[C@H](O)[C@H](C)O2)Oc2ccc(cc2Cl)[C@H]1O [VANCOMYCIN] has an MIC (Staphylococcus aureus [1]) of 8 µg/mL (≈ 5.52 µM), an MIC (Staphylococcus aureus [2]) of 8 µg/mL (≈ 5.52 µM) and an MIC (Staphylococcus aureus [3]) of 0.25 µg/mL (≈ 0.173 µM). For the same molecule, the MIC (Staphylococcus aureus [4]) was 0.25 µg/mL (≈ 0.173 µM), the MIC (Staphylococcus aureus [5]) was 8 µg/mL (≈ 5.52 µM) and the MIC (Staphylococcus aureus [6]) was 8 µg/mL (≈ 5.52 µM). For the same molecule, the MIC (Staphylococcus aureus [7]) was 8 µg/mL (≈ 5.52 µM), the MIC (Staphylococcus aureus [8]) was 8 µg/mL (≈ 5.52 µM) and the MIC (Staphylococcus aureus [9]) was 8 µg/mL (≈ 5.52 µM). The MIC (Staphylococcus aureus [10]) was 8 µg/mL (≈ 5.52 µM), the MIC (Staphylococcus aureus [11]) was 8 µg/mL (≈ 5.52 µM) and the MIC (Staphylococcus aureus [12]) was 4 µg/mL (≈ 2.76 µM). For the same molecule, the MIC (Staphylococcus aureus [13]) was 8 µg/mL (≈ 5.52 µM), the MIC (Staphylococcus aureus [14]) was 0.25 µg/mL (≈ 0.173 µM) and the MIC (Staphylococcus aureus [15]) was 8 µg/mL (≈ 5.52 µM). For the same molecule, the MIC (Staphylococcus aureus [16]) was 0.25 µg/mL (≈ 0.173 µM), the MIC (Staphylococcus aureus [17]) was ≥ 8 µg/mL and the MIC (Staphylococcus aureus [18]) was 8 µg/mL (≈ 5.52 µM).
